# Assay results from patent publication US6384061B1, “Hydantoin compounds and methods related thereto” (LG Chemical Ltd., priority 2000, dated 2002).
# How the values were obtained:
# [1] = molecular target: T1, Ras farnesyl transferase (Homo sapiens, UniProt P49354+P49356); assay: Ras farnesyl transferase inhibiting activity (filter-binding, tritium-farnesylpyrophosphate, Ras-CVLS substrate); type: biochemical; details: recombinant Ras farnesyl transferase, 30 minutes at 37° C., read-out: Ftase IC50
# T1 construct: made in house
# [2] = system: intracellular Ras farnesyl transferase, Rat2 cell line; assay: Intracellular Ras farnesyl transferase inhibiting activity in transformed Rat2 cells (35S-methionine labelling, Y13-259 immunoprecipitation, SDS-PAGE); type: cell-based; details: Rattus norvegicus; transformed Rat2 fibroblast cell line; concentration inhibiting 50% of farnesyl binding of Ras protein; read-out: Ftase CIC50
# Procedure, shortened: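 Rat2 fibroblasts transformed with H-Ras, or with H-Ras carrying the K-Ras polybasic lysine C-terminus, were treated with compound (1% DMSO). After 4 h they were labelled for 20 h with 150 μCi/ml 35S-methionine. Lysates were immunoprecipitated with Y13-259, run on 13.5% SDS-PAGE and autoradiographed; CIC50 is the concentration halving farnesylated versus unfarnesylated Ras band intensity.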
# [3] = molecular target: T2, Geranylgeranyl transferase (Bos taurus, UniProt P29702+Q5EAD5); assay: Geranylgeranyl transferase inhibiting activity (geranylgeranyl pyrophosphate, Ras-CVIL substrate); type: biochemical; details: geranylgeranyl transferase purified from bovine brain, read-out: GGtase IC50
# T2 construct: Geranylgeranyl transferase was purified from bovine brain; from tissue; host or cells: bovine brain
# Procedure, shortened: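 Bovine-brain-purified enzyme run as in the farnesyl transferase assay, with geranylgeranyl pyrophosphate and Ras-CVIL substrate protein under similar reaction conditions.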
IC50 [1] [µM],IC50 [3] [µM],Structure (SMILES),IC50 [2] [µM]
5,> 10,"O=C(OCc1ccccc1)N1CCC(Cn2cncc2CN2C(=O)CN(Cc3cccc4ccccc34)C2=O)CC1 [Compound 76, 4-[5-(3-naphthalen-1-ylmethyl-2,5-dioxo-imidazolidin-1-ylmethyl)-imidazol-1-ylmethyl]-piperidine-1-carboxylic acid benzyl ester]",> 50
0.055,> 10,"COCCOCN1C(=O)N(CCCc2cncn2Cc2ccc(C#N)cc2)C(=O)C1(C)c1cccc2ccccc12 (stereo not drawn) [Compound 50, 4-(5-{3-[3-(2-methoxy-ethoxymethyl)-4-methyl-4-naphthalen-1-yl-2,5-dioxo-imidazolidin-1-yl]-propyl}-imidazol-1-ylmethyl)-benzonitrile]",< 20
0.065,> 10,"CC1(c2cccc3ccccc23)C(=O)N(CCCc2cncn2Cc2ccc(C#N)cc2)C(=O)N1Cc1ccccc1 (stereo not drawn) [Compound 53, 4-(5-{3-[3-benzyl-4-methyl-4-naphthalen-1-yl-2,5-dioxo-imidazolidin-1-yl]-propyl}-imidazol-1-ylmethyl)-benzonitrile]",< 20
0.061,> 10,"CSCCC(NC(=O)CN1C(=O)N(Cc2cnc[nH]2)C(=O)C1(C)c1cccc2ccccc12)C(=O)O (stereo not drawn) [Compound 6, 2-{2-[3-(3H-imidazol-4-yl-methyl)-5-methyl-5-naphthalen-1-yl-2,4-dioxo-imidazolidin-1-yl]-acetylamino}-4-methylsulfanyl-butyric acid]",7.3
2.5,> 10,"COC(=O)C(CCSC)NC(=O)CN1C(=O)N(CCc2c[nH]cn2)C(=O)C1(C)c1cccc2ccccc12 (stereo not drawn) [Compound 3, 2-(2-{3-[2-(1H-imidazol-4-yl)-ethyl]-5-methyl-5-naphthalen-1-yl-2,4-dioxo-imidazolidin-1-yl}-acetylamino)-4-methylsulfanyl-butyric acid methyl ester]",5
3.6,> 10,"CC1(c2cccc3ccccc23)C(=O)N(CCCn2ccnc2)C(=O)N1CC(=O)NC1(C#N)CCOCC1 (stereo not drawn) [Compound 67, N-(4-cyano-tetrahydropyran-4-yl)-2-[3-(3-imidazol-1yl-propyl)-5-methyl-5-naphthalen-1-yl-2,4-dioxo-imidazolidin-1-yl]-acetamide]",< 20
0.12,> 10,"CN1CCN(C(=O)C[C@H]2C(=O)N(Cc3cncn3Cc3ccc(C#N)cc3)C(=O)N2Cc2cccc3ccccc23)CC1 [Compound 84, 4-((5S)-{4-[2-(4-methyl-piperazin-1-yl)-2-oxo-ethyl]-3-naphthalen-1-ylmethyl-2,5-dioxo-imidazolidin-1-ylmethyl}-imidazol-1-ylmethyl)-benzonitrile]",< 20
8,> 10,"CC1(c2cccc3ccccc23)C(=O)N(CCCn2ccnc2)C(=O)N1Cc1cccc(C(=O)N2CCSCC2)c1 (stereo not drawn) [Compound 44, 3-(3-imidazol-1-yl-propyl)-1-[3-(thiomorpholine-4-carbonyl)-benzyl]-5-methyl-5-naphthalen-1-yl-imidazolidin-2,4-dione]",< 20
0.015,80,"CC1(c2cccc3ccccc23)C(=O)N(CCCc2cnc[nH]2)C(=O)N1CC(=O)NC(Cc1cccs1)C(=O)O (stereo not drawn) [Compound 9, 2-(2-{3-[3-(3H-imidazol-4-yl)-propyl]-5-methyl-5-naphthalen-1-yl-2,4-dioxo-imidazolidin-1-yl}-acetamino)-3-thiophen-2-yl-propionic acid]",< 1
5,> 10,"CC1(c2cccc3ccccc23)NC(=O)N(CCCc2cncn2Cc2ccc(Br)cc2)C1=O (stereo not drawn) [Compound 68, 3-{3-[3-(4-bromo-benzyl)-3H-imidazol-4-yl]-propyl}-5-methyl-5-naphthalen-1-yl-imidazolidin-2,4-dione]",< 20
0.05,> 10,"CC1(c2cccc3ccccc23)C(=O)N(CCCc2cncn2Cc2ccc(C#N)cc2)C(=O)N1Cc1cccc(C#N)c1 (stereo not drawn) [Compound 54, 4-(5-{3-[3-(3-cyano-benzyl)-4-methyl-4-naphthalen-1-yl-2,5-dioxo-imidazolidin-1-yl]-propyl}-imidazol-1-ylmethyl)-benzonitrile]",< 20
0.25,> 10,"COC(=O)c1ccc(CN2C(=O)N(CCCn3ccnc3)C(=O)C2(C)c2cccc3ccccc23)cc1 (stereo not drawn) [Compound 38, 4-[3-(3-imidazol-1-yl-propyl)-5-methyl-5-naphthalen-1-yl-2,4-dioxo-imidazolidin-1-ylmethyl]-benzoic acid methyl ester]",< 20
0.014,> 10,"CSCCC(NC(=O)CN1C(=O)N(Cc2cncn2Cc2ccc(C#N)cc2)C(=O)C1(C)c1cccc2ccccc12)C(=O)O (stereo not drawn) [Compound 8, 2-(2-{3-[3-(4-cyano-benzyl)-imidazol-4-yl-methyl]-5-methyl-5-naphthalen-1-yl-2,4-dioxo-imidazolidin-1-yl}-acetylamino)-4-methylsulfanyl-butyric acid]",< 20
0.2,> 10,"COC(=O)[C@H](CCSC)NC(=O)CC1C(=O)N(Cc2cncn2Cc2ccc(C#N)cc2)C(=O)N1Cc1cccc2ccccc12 (stereo partly drawn) [Compound 85, (2S)-(2-{1-[3-(4-cyano-benzyl)-3H-imidazol-4-ylmethyl]-3-naphthalen-1-ylmethyl-2,5-dioxo-imidazolidin-4-yl}-acetamino)-4-methylsulfanyl-butyric acid methyl ester]",< 50
0.08,> 10,"CSc1ccc(CN2C(=O)N(CCCn3ccnc3)C(=O)C2(C)c2cccc3ccccc23)cc1C#N (stereo not drawn) [Compound 29, 5-[3-(3-imidazol-1-yl-propyl)-5-methyl-5-naphthalen-1-yl-2,4-dioxo-imidazolidin-1-ylmethyl]-2-methylsulfanyl-benzonitrile]",< 20
0.7,> 10,"COc1ccc(C(=O)N2C(=O)N(CCCn3ccnc3)C(=O)C2(C)c2cccc3ccccc23)cc1 (stereo not drawn) [Compound 64, 3-(3-imidazol-1-yl-propyl)-1-(4-methoxy-benzoyl)-5-methyl-5-naphthalen-1-yl-imidazolidin-2,4-dione]",< 20
0.5,> 10,"COC(=O)C(CCSC)NC(=O)CN1C(=O)N(CCCc2c[nH]cn2)C(=O)C1(C)c1cccc2ccccc12 (stereo not drawn) [Compound 1, 2-(2-{3-[3-(1H-imidazol-4-yl)-propyl]-5-methyl-5-naphthalen-1-yl-2,4-dioxo-imidazolidin-1-yl}-acetylamino)-4-methylsulfanyl-butyric acid methyl ester]",1
> 50,> 10,CC1(c2cccc3ccccc23)C(=O)N(CCCc2cnc[nH]2)C(=O)N1CC(=O)N1CCS(=O)(=O)C1 (stereo not drawn) [Compound 11],< 20
0.18,> 10,"COC(=O)C(CCSC)NC(=O)CN1C(=O)N(Cc2cncn2Cc2ccc(C#N)cc2)C(=O)C1(C)c1cccc2ccccc12 (stereo not drawn) [Compound 7, 2-(2-{3-[3-(4-cyano-benzyl)-imidazol-4-yl-methyl]-5-methyl-5-naphthalen-1-yl-2,4-dioxo-imidazolidin-1-yl}-acetylamino)-4-methylsulfanyl-butyric acid methyl ester]",< 20
